Results as given in patent US20260062443A1 (ALEXION PHARMACEUTICALS, INC., priority 2022, published 2026).

Biological target: T1, Human complement C1s enzyme (Homo sapiens, UniProt P09871)
T1 sequence (P09871 438-688 limits assumed): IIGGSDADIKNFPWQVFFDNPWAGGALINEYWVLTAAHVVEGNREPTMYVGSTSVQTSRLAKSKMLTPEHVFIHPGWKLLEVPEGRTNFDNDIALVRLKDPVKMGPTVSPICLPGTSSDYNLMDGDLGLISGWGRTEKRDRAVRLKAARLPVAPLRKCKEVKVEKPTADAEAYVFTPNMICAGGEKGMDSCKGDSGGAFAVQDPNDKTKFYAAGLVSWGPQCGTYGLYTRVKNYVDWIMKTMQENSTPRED
T1 sequence (P09871 16-437 partner limits assumed): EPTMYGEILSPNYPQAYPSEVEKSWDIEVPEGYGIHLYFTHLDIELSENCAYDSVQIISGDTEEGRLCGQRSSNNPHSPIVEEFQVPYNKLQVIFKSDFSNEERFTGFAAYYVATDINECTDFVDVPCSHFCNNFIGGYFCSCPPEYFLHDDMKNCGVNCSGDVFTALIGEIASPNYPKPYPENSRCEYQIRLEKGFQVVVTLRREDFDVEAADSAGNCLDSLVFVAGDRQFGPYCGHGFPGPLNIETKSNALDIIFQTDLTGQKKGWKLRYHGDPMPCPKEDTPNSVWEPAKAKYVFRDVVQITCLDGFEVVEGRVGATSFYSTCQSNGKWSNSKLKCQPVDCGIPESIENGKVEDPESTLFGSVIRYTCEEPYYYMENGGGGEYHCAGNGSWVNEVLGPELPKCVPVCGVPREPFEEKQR
Test: Human C1s enzyme assay
Format: biochemical
Conditions: human complement C1s enzyme 1.16 nM, substrate Z-L-Lys-SBzl 100 μM, 5 min preincubation; read-out: IC50 (Stars), C1s Inhibiting Activity
Outline: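 IC50 from nonlinear regression of reaction rates versus compound concentration, with rates taken from A405 recorded at 30 s intervals over 30 min after adding 100 μM Z-L-Lys-SBzl plus 100 μM DTNB. Enzyme was human C1s purified from serum, 1.16 nM, given 5 min compound preincubation at room temperature, pH 7.5 Tris/1 M NaCl.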

SMILES	IC50 [nM]
C[C@@H](NC(=O)[C@@H]1C[C@]2(C)C[C@@H]2N1C(=O)CNC(=O)c1ccc2c(c1)Oc1ccccc1S2)c1cc2cnccc2s1 [Compound 231, (1S,3S,5S)-5-methyl-2-((phenoxathiine-3-carbonyl)glycyl)-N-((R)-1-(thieno[3,2-c]pyridin-2-yl)ethyl)-2-azabicyclo[3.1.0]hexane-3-carboxamide]	< 100
C[C@@H](NC(=O)[C@@H]1CC2(CCCCC2)CN1C(=O)CNC(=O)c1ccc2c(c1)Oc1ccccc1S2)c1cc2cnccc2[nH]1 [Compound 234, (S)-N-((R)-1-(1H-pyrrolo[3,2-c]pyridin-2-yl)ethyl)-2-((phenoxathiine-3-carbonyl)glycyl)-2-azaspiro[4.5]decane-3-carboxamide]	< 100
O=C(NCC(=O)N1C[C@H](OC(F)F)C[C@H]1C(=O)NCc1cc2cnccc2s1)c1cccc(Oc2ccccc2)c1 [Compound 235, (2S,4R)-4-(difluoromethoxy)-1-((3-phenoxybenzoyl)glycyl)-N-(thieno[3,2-c]pyridin-2-ylmethyl)pyrrolidine-2-carboxamide]	< 100
C[C@@H](NC(=O)[C@@H]1C[C@@H](S(C)(=O)=O)CN1C(=O)CNC(=O)c1ccc2c(c1)Oc1ccccc1S2)c1cc2cnccc2[nH]1 [Compound 238, (2S,4R)-N-((R)-1-(1H-pyrrolo[3,2-c]pyridin-2-yl)ethyl)-4-(methylsulfonyl)-1-((phenoxathiine-3-carbonyl)glycyl)pyrrolidine-2-carboxamide]	< 100
O=C(NCC(=O)N1C[C@H](OC(F)F)C[C@H]1C(=O)NCc1cc2cnccc2[nH]1)c1ccccc1Oc1ccccc1 [Compound 239, (2S,4R)-N-((1H-pyrrolo[3,2-c]pyridin-2-yl)methyl)-4-(difluoromethoxy)-1-((2-phenoxybenzoyl)glycyl)pyrrolidine-2-carboxamide]	> 1000
C[C@@H](NC(=O)[C@@H]1CC2(CN1C(=O)CNC(=O)c1cccc(Oc3ccc(F)cc3)c1)OCCO2)c1cc2cnccc2[nH]1 [Compound 240, (S)-N-((R)-1-(1H-pyrrolo[3,2-c]pyridin-2-yl)ethyl)-7-((3-(4-fluorophenoxy)benzoyl)glycyl)-1,4-dioxa-7-azaspiro[4.4]nonane-8-carboxamide]	< 100
C[C@@H](NC(=O)[C@@H]1C[C@@H](OC(F)F)CN1C(=O)CNC(=O)c1cccc(Oc2ccc(F)cc2)c1)c1cc2cnccc2[nH]1 [Compound 241, (2S,4R)-N-((R)-1-(1H-pyrrolo[3,2-c]pyridin-2-yl)ethyl)-4-(difluoromethoxy)-1-((3-(4-fluorophenoxy)benzoyl)glycyl) pyrrolidine-2-carboxamide]	< 100
CC1CCN(C(=O)CNC(=O)c2ccc3c(c2)Oc2ccccc2S3)[C@@H]1C(=O)NCc1cc2cnccc2[nH]1 (stereo partly drawn) [Compound 243, (2S)-N-((1H-pyrrolo[3,2-c]pyridin-2-yl)methyl)-3-methyl-1-((phenoxathiine-3-carbonyl)glycyl)pyrrolidine-2-carboxamide]	> 1000
Cc1ccc(Oc2cc(C(=O)NCC(=O)N3C[C@H](OC(F)F)C[C@H]3C(=O)NCc3cc4cnccc4[nH]3)ccc2C)cc1 [Compound 244, (2S,4R)-N-((1H-pyrrolo[3,2-c]pyridin-2-yl)methyl)-4-(difluoromethoxy)-1-((4-methyl-3-(p-tolyloxy)benzoyl)glycyl) pyrrolidine-2-carboxamide]	< 100
C[C@@]12C[C@@H]1N(C(=O)CNC(=O)c1cccc(Oc3ccccc3)c1)[C@H](C(=O)NCc1cc3cnccc3s1)C2 [Compound 246, (1S,3S,5S)-5-methyl-2-((3-phenoxybenzoyl)glycyl)-N-(thieno[3,2-c]pyridin-2-ylmethyl)-2-azabicyclo[3.1.0]hexane-3-carboxamide]	< 100
C[C@@]12C[C@@H]1N(C(=O)CNC(=O)c1ccc3c(c1)Oc1ccccc1S3)[C@H](C(=O)NCc1cccc(B(O)O)c1)C2 [Compound 250, (3-(((1S,3S,5S)-5-methyl-2-((phenoxathiine-3-carbonyl)glycyl)-2-azabicyclo[3.1.0]hexane-3-carboxamido)methyl)phenyl) boronic acid]	> 1000
C[C@@H](NC(=O)[C@@H]1C[C@@H](OC(F)(F)F)CN1C(=O)CNC(=O)c1ccc2c(c1)Oc1ccccc1S2)c1cc2cnccc2[nH]1 [Compound 251, (2S,4R)-N-((R)-1-(1H-pyrrolo[3,2-c]pyridin-2-yl)ethyl)-1-((phenoxathiine-3-carbonyl)glycyl)-4-(trifluoromethoxy)pyrrolidine-2-carboxamide]	< 100
C[C@@]12C[C@@H]1N(C(=O)CNC(=O)c1cccc(Oc3ccc(F)cc3)c1)[C@H](C(=O)NCc1cc3cnccc3s1)C2 [Compound 252, (1S,3S,5S)-2-((3-(4-fluorophenoxy)benzoyl)glycyl)-5-methyl-N-(thieno[3,2-c]pyridin-2-ylmethyl)-2-azabicyclo[3.1.0]hexane-3-carboxamide]	< 100
O=C(NCC(=O)N1C[C@H](OC(F)F)C[C@H]1C(=O)NCc1cc2cnccc2s1)c1cccc(Oc2ccc(F)cc2)c1 [Compound 254, (2S,4R)-4-(difluoromethoxy)-1-((3-(4-fluorophenoxy)benzoyl)glycyl)-N-(thieno[3,2-c]pyridin-2-ylmethyl)pyrrolidine-2-carboxamide]	< 100
O=C(NCC(=O)N1CC2(C[C@H]1C(=O)NCc1cc3cnccc3s1)OCCO2)c1cccc(Oc2ccc(F)cc2)c1 [Compound 255, (S)-7-((3-(4-fluorophenoxy)benzoyl)glycyl)-N-(thieno[3,2-c]pyridin-2-ylmethyl)-1,4-dioxa-7-azaspiro[4.4]nonane-8-carboxamide]	100 to 1000
O=C(NCC(=O)N1CC2(C[C@H]1C(=O)NCc1cc3cnccc3s1)OCCO2)c1cccc(Oc2ccccc2)c1 [Compound 256, (S)-7-((3-phenoxybenzoyl)glycyl)-N-(thieno[3,2-c]pyridin-2-ylmethyl)-1,4-dioxa-7-azaspiro[4.4]nonane-8-carboxamide]	< 100

Other lines, results leading:

IC50 [nM]	SMILES
> 1000	Nc1noc2cc(CNC(=O)[C@@H]3C[C@@H](OC(F)F)CN3C(=O)CNC(=O)c3ccc4c(c3)Oc3ccccc3S4)ccc12 [Compound 232, (2S,4R)-N-((3-aminobenzo[d]isoxazol-6-yl)methyl)-4-(difluoromethoxy)-1-((phenoxathiine-3-carbonyl)glycyl)pyrrolidine-2-carboxamide]
> 1000	O=C(NCC(=O)N1C[C@H](OC(F)F)C[C@H]1C(=O)NCc1ccc2nccn2c1)c1ccc2c(c1)Oc1ccccc1S2 [Compound 233, (2S,4R)-4-(difluoromethoxy)-N-(imidazo[1,2-a]pyridin-6-ylmethyl)-1-((phenoxathiine-3-carbonyl)glycyl)pyrrolidine-2-carboxamide]
> 1000	O=C(NCC(=O)N1C[C@H](OC(F)F)C[C@H]1C(=O)NCc1ccc2cnccc2c1)c1ccc2c(c1)Oc1ccccc1S2 [Compound 236, (2S,4R)-4-(difluoromethoxy)-N-(isoquinolin-6-ylmethyl)-1-((phenoxathiine-3-carbonyl)glycyl)pyrrolidine-2-carboxamide]
> 1000	O=C(NCC(=O)N1C[C@H](OC(F)F)C[C@H]1C(=O)NCc1ccn2ccnc2c1)c1ccc2c(c1)Oc1ccccc1S2 [Compound 237, (2S,4R)-4-(difluoromethoxy)-N-(imidazo[1,2-a]pyridin-7-ylmethyl)-1-((phenoxathiine-3-carbonyl)glycyl)pyrrolidine-2-carboxamide]
> 1000	O=C(NCC(=O)N1C[C@H](OC(F)F)C[C@H]1C(=O)NCc1ccc2ncsc2c1)c1ccc2c(c1)Oc1ccccc1S2 [Compound 245, (2S,4R)-N-(benzo[d]thiazol-6-ylmethyl)-4-(difluoromethoxy)-1-((phenoxathiine-3-carbonyl)glycyl)pyrrolidine-2-carboxamide]
100 to 1000	O=C(NCC(=O)N1C[C@H](OC(F)F)C[C@H]1C(=O)NCc1cnc2[nH]ccc2c1)c1ccc2c(c1)Oc1ccccc1S2 [Compound 247]
> 1000	Nc1nc(=O)oc2cc(CNC(=O)[C@@H]3C[C@@H](OC(F)F)CN3C(=O)CNC(=O)c3ccc4c(c3)Oc3ccccc3S4)ccc12 [Compound 248, (2S,4R)-N-((4-amino-2-oxo-2H-benzo[e][1,3]oxazin-7-yl)methyl)-4-(difluoromethoxy)-1-((phenoxathiine-3-carbonyl)glycyl)pyrrolidine-2-carboxamide]
> 1000	O=C(NCC(=O)N1C[C@H](OC(F)F)C[C@H]1C(=O)NCc1ccc2ccncc2c1)c1ccc2c(c1)Oc1ccccc1S2 [Compound 249, (2S,4R)-4-(difluoromethoxy)-N-(isoquinolin-7-ylmethyl)-1-((phenoxathiine-3-carbonyl)glycyl)pyrrolidine-2-carboxamide]
100 to 1000	O=C(NCC(=O)N1C[C@H](OC(F)F)C[C@H]1C(=O)NCc1cnc2c(c1)CNC2)c1ccc2c(c1)Oc1ccccc1S2 [Compound 253, (2S,4R)-4-(difluoromethoxy)-N-((6,7-dihydro-5H-pyrrolo[3,4-b]pyridin-3-yl)methyl)-1-((phenoxathiine-3-carbonyl)glycyl)pyrrolidine-2-carboxamide]
